Data set [1] deals with Piezo 2, CaVα2δ-1, ARNT2, Mafb and Kv1.4 gene expression. Kind of data set: qPCR of ion channel and transcription factor gene expression in mouse DRG primary culture treated with chemotherapy or oxidizing agent. It is filed as cell-based. On the procedure:
Model: C57Bl6 females, 8 to 15 weeks old (sexually mature young adult mice)
The next morning, place 1.25 μg/ml cisplatin with the other molecules to be tested. […]
The RNA is extracted using Macherey-Nagel's “NucleoSpin RNA” kit.
Reverse transcriptions were performed following the protocol of the “SuperScript III Reverse Transcriptase” kit from Thermo Fisher Scientific, doubling the quantities of RNA and products used in order to obtain a higher concentration of cDNA.
The qPCRs were performed with undiluted cDNA obtained by reverse-transcription using 4.625 μL of cDNA and 5.375 μL of SyberROX PCR Mix (final 10 μL per well).
When the cycle threshold (CT)>35, the gene is considered to be not expressed in the cells analyzed.
To compare our results with and without treatment, we calculated the delta between the target gene and the reference gene (36B4) for each condition (e.g. dCTPIEZO2=CTPIEZO2−CT36B4=27.4−21.6=5.8 (control); 30.6-23.4=7.2 (cisplatin)).
We then calculated the delta delta CT of the target gene for the test condition and the control conditions (e.g. ddCTPIEZO2=dCTPIEZO2 (cisplatin)−[…]=7.2−5.8=1.4).
Finally, we determined the relative expression by calculating: 2^^−ddCT (e.g. for PIEZO2:2^^−ddCT=2^^−1.4=0.40).
The results correspond to the mean±SEM.
Mouse DRGs resulting from primary culture were treated with TBHP at 10 or 30 μM or with 1.25 μg/ml cisplatin (positive control) versus control (CTRL). mRNA expression was measured by qPCR and normalized with the 36B4 reference gene. The results correspond to the mean±SEM.
(In general: Quantitative PCR measures a nucleic acid by following its amplification.)

The subject of data set [2] is Arnt2, Piezo 2 and CaVα2δ-1 gene expression. Kind of data set: qPCR of reporter genes in primary cultured DRG neurons exposed to cisplatin plus test molecules. It is filed as cell-based, mouse. The settings on record: for effect on Piezo2, CaVα2δ-1 and ARNT2 expression, molecule taken alone: ex vivo primary cultured neurons, 24 h exposure to 1.25 μg/ml cisplatin (FIGS. 5-9).
Experimental: Treatment of the DRGs for 24 hours.
The effect of different molecules was tested on the expression of the same reporter genes, Pizeo 2, CaVα2δ-1 and ARNT2, using qPCR on primary cultured DRG neurons: • NAC • Beta-carotene (provitamin A) • Vitamin B12 • Luteolin (flavone)

The test system of the next data set is DRG neurons. Description: Phase-contrast microscopy of cultured DRG neurons (morphology, neuronal networks). The class given is cell-based, mouse. The settings on record: for effect on the morphology of DRG neurons (cell or network level): molecule taken alone with cisplatin, micrographs not shown.
Data set [3] concerns tactile hypersensitivity triggered by cisplatin and paclitaxel. Description: Von Frey test of tactile hypersensitivity / chemo-induced neuropathy. The class given is in vivo, mouse.
Data set [4] concerns Piezo2, CaVα2δ-1 and ARNT2 expression. Kind of data set: Reporter gene expression in vivo in the animal exposed to a chemotherapy protocol. The settings on record: animal exposed to a chemotherapy protocol (not shown). (In general: Reporter assays use an easily measured gene product as a stand-in for the process of interest.)

Entries after “also recorded” stand apart in the source; their conditions may differ.

For the compound `N.N.[Cl][Pt][Cl]` [cisplatin], the “relative expression of PIEZO2 (2^-ddCT)” value in data set [1] (cells treated with cisplatin compared to control cells normalized to 1, reference gene 36B4) is 0.40. Moreover, the “effects on Mafb mRNA expression” value in data set [1] (cisplatin 1.25 μg/ml, 0, 4, 8 and 16 h, normalized with 36B4 (FIG. 3)) is on record as “not significant”.
`O=c1cc(-c2ccc(O)c(O)c2)oc2cc(O)cc(O)c12` [luteolin, Luteolin]: the “effect on Piezo2, CaVα2δ-1 and ARNT2 expression, molecule taken alone” value in data set [2] is given as “does not appear to bring any improvement”. Further, the “effect on the morphology of DRG neurons (cell or network level)” value in the data set with DRG neurons is on record as “does not appear to bring any improvement”.
In the case of `CC(C)(C)OO` [TBHP, tert-butyl hydroperoxide], the “expression of Kv1.4 (negative control)” value in data set [1] (TBHP at 10 or 30 μM (FIG. 4)) was “unaffected”.
On to `CC1=C(/C=C/C(C)=C/C=C/C(C)=C/C=C/C=C(C)/C=C/C=C(C)/C=C/C2=C(C)CCCC2(C)C)C(C)(C)CCC1` [beta-carotene, Beta-carotene], for which, in data set [2], the “effect on Piezo2, CaVα2δ-1 and ARNT2 expression, molecule taken alone” value is “effect only at a 5 μM dose, and not at the lower doses tested (0.3, 1 and 3 μM)”. For the same compound, in the data set on DRG neurons (beta-carotene 5 μM (not shown)), the “toxicity to cultured neurons” value was “slightly toxic”.
With cobalamin [vitamin B12], the “effect of vitamin B12 taken alone on gene expression” value in data set [2] (dose of 25 and 50 μM, 24 h, 1.25 μg/ml cisplatin (FIG. 7)) is “no effect”. Moreover, the “effect on Piezo2, CaVα2δ-1 and ARNT2 expression, molecule taken alone” value in data set [2] is recorded as “does not appear to have a conclusive chemoprotective effect”. Moreover, the “toxicity to neuronal morphology” value with DRG neurons (vitamin B12 at a dose of 50 μM (not shown)) is recorded as “some toxicity”.
For `CC(=O)N[C@@H](CS)C(=O)O` [NAC, N-acetylcysteine], the “effect on Piezo2, CaVα2δ-1 and ARNT2 expression, molecule taken alone” value in data set [2] was “allow Piezo2, CaVα2δ-1 and ARNT2 expression levels to rise; also recorded: strongly limits this disruption in expression”. In addition, the “chemo-induced neuropathies in a mouse model” value in data set [3] (mouse model) was “suppresses the resulting neuropathies”. Moreover, the “tactile hypersensitivity in response to mechanical stimuli (Von Frey test)” value in data set [3] (triggered by cisplatin and paclitaxel (not shown)) was “dramatically reduce tactile hypersensitivity”. Moreover, the “effect on the morphology of DRG neurons (cell or network level)” value in the data set with DRG neurons is reported as “protective effect”. Also, the “Piezo2, CaVα2δ-1 and ARNT2 expression levels in vivo” value in data set [4] is “allow Piezo2, CaVα2δ-1 and ARNT2 expression levels to rise”.

Values taken from patent publication US20250127735A1, “NOVEL COMPOSITION COMPRISING N-ACETYLCYSTEINE FOR OVERCOMING THE ADVERSE EFFECTS OF A CHEMOTHERAPY” (PRONUTRI, priority 2022, published 2025).
